These results are taken from PMC2924647 (The EMBO Journal, 2010).

The test system of assay [1] is relaxin-stimulated cAMP via RXFP1. The assay is classed as cell-based.
Assay [2] concerns basal cAMP in cells expressing RXFP1. The assay is classed as cell-based.
Assay [3] addresses T1, RXFP2 (Homo sapiens, UniProt Q8WXD0). The assay is described as follows: Single-cell FRET cAMP.
Assay [4] addresses T1, RXFP2. In words: Single-cell FRET cAMP. This is another data set of the same source.
The subject of a further assay is RXFP2/1. In words: Single-cell FRET cAMP.
Assay [5] concerns the target T2, RXFP1 (Homo sapiens, UniProt Q9HBX9).
T2 sequence (Q9HBX9 1-757): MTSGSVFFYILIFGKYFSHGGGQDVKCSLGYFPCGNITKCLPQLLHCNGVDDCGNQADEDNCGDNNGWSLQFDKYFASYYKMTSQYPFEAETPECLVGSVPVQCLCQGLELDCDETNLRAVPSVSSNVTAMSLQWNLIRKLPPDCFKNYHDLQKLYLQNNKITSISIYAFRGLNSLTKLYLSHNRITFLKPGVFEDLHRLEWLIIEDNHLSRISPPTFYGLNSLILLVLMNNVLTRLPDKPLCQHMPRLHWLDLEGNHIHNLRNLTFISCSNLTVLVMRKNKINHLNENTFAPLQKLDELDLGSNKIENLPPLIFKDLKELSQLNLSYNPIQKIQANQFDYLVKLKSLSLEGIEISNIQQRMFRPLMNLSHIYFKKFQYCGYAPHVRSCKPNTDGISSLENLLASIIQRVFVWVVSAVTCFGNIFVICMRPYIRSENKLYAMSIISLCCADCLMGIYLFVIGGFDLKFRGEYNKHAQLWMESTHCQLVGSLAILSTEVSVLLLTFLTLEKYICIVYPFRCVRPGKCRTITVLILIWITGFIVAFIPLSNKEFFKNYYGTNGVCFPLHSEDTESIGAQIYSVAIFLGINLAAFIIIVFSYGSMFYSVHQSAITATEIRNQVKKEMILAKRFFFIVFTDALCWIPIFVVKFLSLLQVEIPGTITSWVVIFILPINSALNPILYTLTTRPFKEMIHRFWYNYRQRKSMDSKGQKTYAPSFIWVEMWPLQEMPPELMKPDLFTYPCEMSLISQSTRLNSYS
In words: Single-cell FRET cAMP. Particulars: HeLa, PTX 100 ng/ml, 16 h, forskolin 1 μM.

The target of assay [6] is T3, RXFP1 (Rattus norvegicus, UniProt Q6R6I6).
T3 sequence (Q6R6I6 1-758): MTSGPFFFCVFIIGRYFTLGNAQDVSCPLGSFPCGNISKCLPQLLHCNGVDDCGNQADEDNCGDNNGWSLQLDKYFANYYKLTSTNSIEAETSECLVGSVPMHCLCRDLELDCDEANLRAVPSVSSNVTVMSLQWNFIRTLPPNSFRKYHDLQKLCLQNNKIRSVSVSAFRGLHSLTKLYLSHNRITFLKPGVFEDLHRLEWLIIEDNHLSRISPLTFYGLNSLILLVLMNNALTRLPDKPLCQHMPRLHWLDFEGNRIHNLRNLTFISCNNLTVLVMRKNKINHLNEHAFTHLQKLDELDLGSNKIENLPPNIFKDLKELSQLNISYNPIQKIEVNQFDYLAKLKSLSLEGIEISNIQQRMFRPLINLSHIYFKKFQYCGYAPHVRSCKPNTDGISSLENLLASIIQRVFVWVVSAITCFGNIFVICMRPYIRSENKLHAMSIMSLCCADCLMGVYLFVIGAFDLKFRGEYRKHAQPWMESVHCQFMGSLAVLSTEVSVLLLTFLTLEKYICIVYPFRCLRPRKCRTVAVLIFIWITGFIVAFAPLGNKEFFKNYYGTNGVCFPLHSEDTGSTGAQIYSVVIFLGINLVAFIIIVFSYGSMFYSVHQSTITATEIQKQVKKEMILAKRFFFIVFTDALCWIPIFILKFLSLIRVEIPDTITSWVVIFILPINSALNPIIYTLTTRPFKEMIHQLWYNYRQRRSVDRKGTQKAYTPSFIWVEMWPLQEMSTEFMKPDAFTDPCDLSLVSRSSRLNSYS
The assay is described as follows: Single-cell FRET cAMP. To be noted: rat cardiac fibroblasts, PTX pre-treatment.

The subject of assay [7] is basal cAMP in cells expressing RXFP2 or pcDNA. In words: Effect of PDE inhibition on basal cAMP, HEK293 expressing RXFP2 or pcDNA. The assay is classed as cell-based. Particulars: IBMX 100 μM, 30 min; RXFP1 versus RXFP2 or pcDNA.

Read-outs that look alike come from different tables or passages of the source. Positions of bridges follow the written chain, without caps; N, C: chain ends. Chains are numbered I, II in the order given. No end group written: not given here.

T1 sequence (Q8WXD0 whole entry, species assumed): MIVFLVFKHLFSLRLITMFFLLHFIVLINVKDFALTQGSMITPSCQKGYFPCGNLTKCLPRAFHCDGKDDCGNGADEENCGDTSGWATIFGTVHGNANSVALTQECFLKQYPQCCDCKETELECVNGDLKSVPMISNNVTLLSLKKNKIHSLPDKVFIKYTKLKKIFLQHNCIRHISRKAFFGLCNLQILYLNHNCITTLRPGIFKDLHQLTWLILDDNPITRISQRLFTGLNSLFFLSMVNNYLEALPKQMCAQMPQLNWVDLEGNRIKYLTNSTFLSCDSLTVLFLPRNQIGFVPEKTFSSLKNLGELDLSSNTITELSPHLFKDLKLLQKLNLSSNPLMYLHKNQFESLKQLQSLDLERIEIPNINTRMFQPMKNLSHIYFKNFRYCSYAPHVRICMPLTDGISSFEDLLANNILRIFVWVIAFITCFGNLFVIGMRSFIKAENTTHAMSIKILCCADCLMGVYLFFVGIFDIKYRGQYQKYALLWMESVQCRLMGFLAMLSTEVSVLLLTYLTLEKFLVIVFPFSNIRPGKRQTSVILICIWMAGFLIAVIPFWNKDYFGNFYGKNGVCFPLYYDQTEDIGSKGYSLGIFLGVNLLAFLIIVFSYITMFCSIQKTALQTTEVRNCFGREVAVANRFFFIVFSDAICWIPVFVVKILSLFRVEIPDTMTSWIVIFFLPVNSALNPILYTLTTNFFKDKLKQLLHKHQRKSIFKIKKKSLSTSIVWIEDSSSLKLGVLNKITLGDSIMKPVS

As for cholera toxin, in assay [1], the “effect on cAMP response to sub-picomolar (10 fM) relaxin” value (“effect on cAMP response” for short) is recorded as “response to 10 fM relaxin reaching the maximal relaxin response”. Moreover, the “effect on basal cAMP” value in assay [2] was “potentiated basal”.
Take `C[C@H]1O[C@@H](n2cnc3c(N)ncnc32)C[C@@H]1OP(=O)(OCCSC(=O)C(C)(C)C)OCCSC(=O)C(C)(C)C` [ddAB, 2′,5′-dd-3′-AMP-bis(tBuSATE)]: in assay [1], the “effect on cAMP response” value is “completely abolished the response to 10 fM relaxin”.
On to `CCCCCCOC(=O)[C@]1(O)C[C@@H]2O[C@@]1(C)n1c3ccccc3c3c4c(c5c6ccccc6n2c5c31)C(=O)NC4` [KT5720], for which the “effect on cAMP response” value in assay [1] was “no further increase in cAMP”. Moreover, in assay [2], the “effect on basal cAMP” value is recorded as “basal cAMP levels were significantly increased”.
Consider `O=C(Nc1cc(C(=O)Nc2ccc(S(=O)(=O)O)cc2S(=O)(=O)O)cc(C(=O)Nc2ccc(S(=O)(=O)O)cc2S(=O)(=O)O)c1)Nc1cc(C(=O)Nc2ccc(S(=O)(=O)O)cc2S(=O)(=O)O)cc(C(=O)Nc2ccc(S(=O)(=O)O)cc2S(=O)(=O)O)c1` [NF449], for which the “effect on cAMP response” value in assay [1] is “significantly inhibited the 10 fM relaxin response”.
In the case of `O=S(=O)(NCCNC/C=C/c1ccc(Br)cc1)c1cccc2cnccc12` [H89], the “effect on cAMP response” value in assay [1] is “no further increase in cAMP”. Besides, the “effect on basal cAMP” value in assay [2] is recorded as “basal cAMP levels were significantly increased”.
As for “I: PTPEMREKLCGHHFVRALVRVCGGPRWSTEA / II: AAATNPARYCCLSGCTQQDLLTLCPY (disulfide I:10-II:11, I:22-II:24, II:10-II:15) [INSL3]”, the EC50 (as a rule, the concentration that produces a half-maximal response) on RXFP2 [3] turned out to be 7.74 ± 1.67 nM; on RXFP2 [4] it was 1.42 ± 0.92 nM; with RXFP2/1 (read-out: INSL3 EC50, pmEpac2, RXFP2/1, mean±s.e.m.) it was 0.26 ± 0.04 nM. Also, the “cellular response to sub-picomolar peptide” value at RXFP2 [4] (RXFP2, pmEpac2) is listed as “no evidence of a cellular response”. In addition, the “cAMP accumulation at sub-picomolar concentrations” value in the assay with RXFP2/1 (RXFP2/1, pmEpac2) is “not the closely related peptide INSL3, increased cAMP accumulation at sub-picomolar concentrations”.
Take `CCCCOc1cc(CC2CNC(=O)N2)ccc1OC` (centres unmarked) [Ro 20-1724]: the “effect on cAMP response” value in assay [1] is given as “no further increase following stimulation with 10 fM relaxin”. For the same compound, the “effect on basal cAMP” value in assay [2] is “significantly increased basal cAMP”.
On to PTX, for which, in assay [1], the “effect on cAMP response” value is “did not affect the cAMP response to sub-picomolar concentrations of relaxin” and the “effect on maximal / classical cAMP response to relaxin” value was “the maximal cAMP response to relaxin was enhanced”. In addition, the “effect on shape of relaxin concentration–response curve” value with RXFP1 [5] is given as “revealed the biphasic concentration–response curve”. Further, the “effect on shape of relaxin concentration–response curve” value with RXFP1 [6] is recorded as “revealed a biphasic, stimulatory concentration–response curve”.
On to `O=C1OC2(c3ccccc31)c1ccc(O)c(O)c1Oc1c2ccc(O)c1O` [gallein], for which the “effect on cAMP response” value in assay [1] is recorded as “completely abolished the cAMP accumulation stimulated by 10 fM relaxin”.
As to `CC(C)Cn1c(=O)n(C)c(=O)c2[nH]cnc21` [IBMX, 3-isobutyl-1-methylxanthine], in assay [1], the “effect on biphasic relaxin concentration–response curve” value is listed as “abolished the biphasic concentration–response curve” and the “effect on cAMP response” value is “no further increase following stimulation with 10 fM relaxin”. Also, in assay [2], the “effect on basal cAMP” value was “significantly increased basal cAMP”. Besides, the “effect on basal cAMP, RXFP1-dependence” value in assay [7] is listed as “significantly increased basal cAMP only in cells expressing RXFP1”.
In the case of `CN(C(=O)CCCOc1ccc2[nH]c(=O)ccc2c1)C1CCCCC1` [cilostamide], the “effect on cAMP response” value in assay [1] is on record as “remained responsive to stimulation with 10 fM relaxin”. Also, the “effect on basal cAMP” value in assay [2] is listed as “no significant effect”.
